One may read the EC50 as the concentration that produces a half-maximal response.

Structures are written as SMILES.

One test relates to HBV viral load production from HepAD38 cells. The experiment in a line: Viral production from HepAD38 cells: viral load in supernatant by qPCR of the HBV core sequence. The class given is cell-based. As to conditions: 5 days incubation, qPCR of supernatant HBV DNA vs DMSO control, read-out: viral load lowering EC50 (Activity). In outline:
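Viral load was measured by qPCR of the HBV core region in supernatant, quantified against DNA standards and compared with DMSO wells. Cells (50,000/well, tetracycline withdrawn, 2% FBS) received compound from 10 μM final for 5 days; EC50 from four-parameter nonlinear regression.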
In general terms: Real-time PCR tracks product formation cycle by cycle.
For `CN1C(C(=O)Nc2ccc(F)c(Cl)c2)CC(C(=O)NCc2ncc(-c3ccc(F)cc3)s2)NS1(=O)=O` (single isomer, unassigned) [1153-ISOMER-B, N3-(3-chloro-4-fluoro-phenyl)-N5-[[5-(4-fluorophenyl)thiazol-2-yl]methyl]-2-methyl-1,1-dioxo-1,2,6-thiadiazinane-3,5-dicarboxamide], the EC50 is 0.1 to 10 µM. Same read-out and setting: then `Cc1cc(CNC(=O)C2CC(C(=O)Nc3ccc(F)c(Cl)c3)N(C)S(=O)(=O)N2)n(C)n1` (single isomer, unassigned) [Compound 482-ISOMER-B, N3-(3-chloro-4-fluoro-phenyl)-N5-[(2,5-dimethylpyrazol-3-yl)methyl]-2-methyl-1,1-dioxo-1,2,6-thiadiazinane-3,5-dicarboxamide], with 0.1 to 10 µM. On the same count and under the same terms, the value for `Cc1nc(-c2ccccn2)sc1CNC(=O)C1CC(C(=O)Nc2ccc(F)c(Cl)c2)N(C)S(=O)(=O)N1` (single isomer, unassigned) [1065-ISOMER-B, N3-(3-chloro-4-fluoro-phenyl)-2-methyl-N5-[[4-methyl-2-(2-pyridyl)thiazol-5-yl]methyl]-1,1-dioxo-1,2,6-thiadiazinane-3,5-dicarboxamide] was less than 0.05 µM; that for `COc1ccc2nc(CNC(=O)C3CC(C(=O)Nc4ccc(F)c(Cl)c4)N(C)S(=O)(=O)N3)sc2c1` (single isomer, unassigned) [1011-ISOMER-A, N3-(3-Chloro-4-fluoro-phenyl)-N5-[(6-methoxy-1,3-benzothiazol-2-yl)methyl]-2-methyl-1,1-dioxo-1,2,6-thiadiazinane-3,5-dicarboxamide] was 0.1 to 10 µM; that for `CN1C(C(=O)Nc2ccc(F)c(Cl)c2)CC(C(=O)NCc2csc(-c3ccc(OCCN4CCCCC4)cc3)n2)NS1(=O)=O` (single isomer, unassigned) [Compound 957-ISOMER-B, N3-(3-chloro-4-fluoro-phenyl)-2-methyl-1,1-dioxo-N5-[[2-[4-[2-(1-piperidyl)ethoxy]phenyl]thiazol-4-yl]methyl]-1,2,6-thiadiazinane-3,5-dicarboxamide] was 0.1 to 10 µM. Still for that read-out and setting: the value for `CN1C(C(=O)Nc2ccc(F)c(Cl)c2)CC(C(=O)NC(c2ccccc2)c2ccccc2)NS1(=O)=O` (single isomer, unassigned) [1014-ISOMER-B, N5-benzhydryl-N3-(3-Chloro-4-fluoro-phenyl)-2-methyl-1,1-dioxo-1,2,6-thiadiazinane-3,5-dicarboxamide] was 0.1 to 10 µM; that for `CN1C(C(=O)Nc2ccc(F)c(Cl)c2)CC(C(=O)NCc2cnc(N)s2)NS1(=O)=O` (single isomer, unassigned) [1132-ISOMER-B, N5-[(2-aminothiazol-5-yl)methyl]-N3-(3-chloro-4-fluoro-phenyl)-2-methyl-1,1-dioxo-1,2,6-thiadiazinane-3,5-dicarboxamide] was 0.1 to 10 µM; that for `CN1C(C(=O)Nc2ccc(F)c(Cl)c2)CC(C(=O)NC2CCN(c3cc(Cl)ccn3)CC2)NS1(=O)=O` (single isomer, unassigned) [Compound 974-ISOMER-B, N3-(3-chloro-4-fluoro-phenyl)-N5-[1-(4-chloro-2-pyridyl)-4-piperidyl]-2-methyl-1,1-dioxo-1,2,6-thiadiazinane-3,5-dicarboxamide] was 0.05 to 0.1 µM. `CN1C(C(=O)Nc2ccc(F)c(Cl)c2)CC(C(=O)NCC2CCCCC2)NS1(=O)=O` (single isomer, unassigned) [1160-ISOMER-B, N3-(3-chloro-4-fluoro-phenyl)-N5-(cyclohexylmethyl)-2-methyl-1,1-dioxo-1,2,6-thiadiazinane-3,5-dicarboxamide]: the EC50 lay within 0.1 to 10 µM. The same measure, in the same setting: the value for `Cc1nc(-c2ccccc2Cl)sc1CNC(=O)C1CC(C(=O)Nc2ccc(F)c(Cl)c2)N(C)S(=O)(=O)N1` (single isomer, unassigned) [1015-ISOMER-B, N3-(3-Chloro-4-fluoro-phenyl)-N5-[[2-(2-chlorophenyl)-4-methyl-thiazol-5-yl]methyl]-2-methyl-1,1-dioxo-1,2,6-thiadiazinane-3,5-dicarboxamide] was 0.05 to 0.1 µM.

The same test, now with this note: Hepatitis B virus, HePAD38, 120 h, 5 days incubation, qPCR of supernatant HBV DNA vs DMSO control, read-out: viral load lowering EC50 (Activity).
As for `CN1C(C(=O)Nc2ccc(F)c(Cl)c2)CC(C(=O)Nc2ccc3cccnc3c2)NS1(=O)=O` (centres unmarked) [Compound 725], the half-maximal effective concentration (EC50) lay in the range of 0.05 to 0.1 µM.

`C[C@H](NC(=O)C1CC(C(=O)Nc2ccc(F)c(Cl)c2)N(C)S(=O)(=O)N1)c1ccc(F)cc1` (some centres unmarked) [Compound 493-S]: the concentration giving a half-maximal response (EC50) was less than 0.05 µM. Still for that read-out and setting: the value for `Cc1nc(-c2ccccc2F)sc1C(NC(=O)C1CC(C(=O)Nc2ccc(F)c(Cl)c2)N(C)S(=O)(=O)N1)c1ccccc1` (centres unmarked) [Compound 1101] was 0.05 to 0.1 µM. Same read-out and setting: the value for `CN1C(C(=O)Nc2ccc(F)c(Cl)c2)CC(C(=O)NC2CCN(C(=O)C3CC3)CC2)NS1(=O)=O` (single isomer, unassigned) [Compound 854-ISOMER-A, N3-(3-chloro-4-fluoro-phenyl)-N5-[1-(cyclopropanecarbonyl)-4-piperidyl]-2-methyl-1,1-dioxo-1,2,6-thiadiazinane-3,5-dicarboxamide] was less than 0.05 µM; that for `Cc1nc(-c2ccccc2)sc1CNC(=O)C1CC(C(=O)Nc2ccnc(Cl)c2)N(C)S(=O)(=O)N1` (centres unmarked) [Compound 1137] was less than 0.05 µM; that for `CN1C(C(=O)Nc2ccc(F)c(Cl)c2)CC(C(=O)NCc2ccccc2-n2ccnc2)NS1(=O)=O` (centres unmarked) [Compound 910] was 0.05 to 0.1 µM. As to `CC(C)OC1CCC(NC(=O)C2CC(C(=O)Nc3ccc(F)c(Cl)c3)N(C)S(=O)(=O)N2)CC1` (centres unmarked) [Compound 862], the EC50 is less than 0.05 µM. On the same count and under the same terms, the value for `Cc1nc(CNC(=O)C2CC(C(=O)Nc3ccc(F)c(Cl)c3)N(C)S(=O)(=O)N2)sc1-c1ccccc1Cl` (centres unmarked) [Compound 1071] was less than 0.05 µM.

As for `CN1C(C(=O)Nc2ccc(F)c(Cl)c2)CC(C(=O)NCc2nn(-c3ccccc3Cl)c3ccccc23)NS1(=O)=O` (centres unmarked) [Compound 1073], the EC50 was less than 0.05 µM. The same measure, in the same setting: then `CN1C(C(=O)Nc2ccc(F)c(Cl)c2)CC(C(=O)NCc2ccc(C(F)(F)F)cc2)NS1(=O)=O` (centres unmarked) [Compound 481], with 0.05 to 0.1 µM. Same read-out and setting: the value for `CN1C(C(=O)Nc2ccc(F)c(Cl)c2)CC(C(=O)NC2CCN(C(=O)OC(C)(C)C)CC2)NS1(=O)=O` (single isomer, unassigned) [Compound 767-ISOMER-A, tert-butyl 4-[[5-[(3-chloro-4-fluoro-phenyl)carbamoyl]-6-methyl-1,1-dioxo-1,2,6-thiadiazinane-3-carbonyl]amino]piperidine-1-carboxylate] was less than 0.05 µM; that for `CN1C(C(=O)Nc2ccc(F)c(Cl)c2)CC(C(=O)Nc2cn(-c3ccccc3)cn2)NS1(=O)=O` (centres unmarked) [Compound 1116] was 0.05 to 0.1 µM. Same read-out and setting: the value for `Cc1nc(-c2ccccn2)sc1CNC(=O)C1CC(C(=O)Nc2ccc(F)c(Cl)c2)N(C)S(=O)(=O)N1` (centres unmarked) [Compound 1065] was less than 0.05 µM; that for `CN1C(C(=O)Nc2ccc(F)c(Cl)c2)CC(C(=O)NC2CCN(c3ccccn3)CC2)NS1(=O)=O` (single isomer, unassigned) [Compound 769-ISOMER-A, N3-(3-chloro-4-fluoro-phenyl)-2-methyl-1,1-dioxo-N5-[1-(2-pyridyl)-4-piperidyl]-1,2,6-thiadiazinane-3,5-dicarboxamide] was less than 0.05 µM; that for `CCN1CCC(Oc2ccc(-c3ncc(CNC(=O)C4CC(C(=O)Nc5ccc(F)c(Cl)c5)N(C)S(=O)(=O)N4)s3)cc2)CC1` (single isomer, unassigned) [Compound 921-ISOMER-A, N3-(3-chloro-4-fluoro-phenyl)-N5-[[2-[4-[(1-ethyl-4-piperidyl)oxy]phenyl]thiazol-5-yl]methyl]-2-methyl-1,1-dioxo-1,2,6-thiadiazinane-3,5-dicarboxamide] was less than 0.05 µM. With `CN1C(C(=O)Nc2ccc(F)c(Cl)c2)CC(C(=O)Nc2ccc(-c3ccccc3)cc2)NS1(=O)=O` (centres unmarked) [Compound 711], the EC50 lay within 0.1 to 10 µM. On to `CN1C(C(=O)Nc2ccc(F)c(Cl)c2)CC(C(=O)NCc2ccccn2)NS1(=O)=O` (centres unmarked) [Compound 739], for which the half-maximal effective concentration (EC50) was 0.05 to 0.1 µM. Same read-out and setting: the value for `CN1C(C(=O)Nc2ccc(F)c(Cl)c2)CC(C(=O)NCc2nn(-c3ccccc3)c3ccccc23)NS1(=O)=O` (centres unmarked) [Compound 1072] was less than 0.05 µM; that for `Cc1c(CNC(=O)C2CC(C(=O)Nc3ccc(F)c(Cl)c3)N(C)S(=O)(=O)N2)noc1-c1ccccc1` (centres unmarked) [Compound 1150] was less than 0.05 µM; that for `C[C@@H](NC(=O)C1CC(C(=O)Nc2ccc(F)c(Cl)c2)N(C)S(=O)(=O)N1)C1CCCCC1` (some centres unmarked) [Compound 741] was 0.05 to 0.1 µM. Same read-out and setting: then `Cc1cn(-c2ccccc2F)nc1CNC(=O)C1CC(C(=O)Nc2ccc(F)c(Cl)c2)N(C)S(=O)(=O)N1` (centres unmarked) [Compound 1142], with less than 0.05 µM.

For `CN1C(C(=O)Nc2ccc(F)c(Cl)c2)CC(C(=O)NCc2cc(-c3ccccc3)on2)NS1(=O)=O` (single isomer, unassigned) [1149-ISOMER-A, N3-(3-chloro-4-fluoro-phenyl)-2-methyl-1,1-dioxo-N5-[(5-phenylisoxazol-3-yl)methyl]-1,2,6-thiadiazinane-3,5-dicarboxamide], the EC50 was less than 0.05 µM. On to `Cc1nc(-c2ccccc2)sc1CNC(=O)C1CC(C(=O)Nc2ccc(F)c(Cl)c2)N(C)S(=O)(=O)N1` (single isomer, unassigned) [Compound 914-ISOMER-A, N3-(3-chloro-4-fluoro-phenyl)-2-methyl-N5-[(4-methyl-2-phenyl-thiazol-5-yl)methyl]-1,1-dioxo-1,2,6-thiadiazinane-3,5-dicarboxamide], for which the EC50 is less than 0.05 µM. Still for that read-out and setting: then `CN1C(C(=O)Nc2ccc(F)c(Cl)c2)CC(C(=O)NCc2ccccc2)NS1(=O)=O` (single isomer, unassigned) [Compound 718-ISOMER-A, N5-benzyl-N3-(3-chloro-4-fluoro-phenyl)-2-methyl-1,1-dioxo-1,2,6-thiadiazinane-3,5-dicarboxamide], with less than 0.05 µM. With `CN1C(C(=O)Nc2ccc(F)c(C#N)c2)CC(C(=O)NCc2cnc(C(F)(F)F)s2)NS1(=O)=O` (centres unmarked) [Compound 772], the EC50 was less than 0.05 µM.
